Experiments:
cNHEJ activity = test: NHEJ reporter assay in SKOV3-EJ5-GFP cells; format: cell-based; details: I-SceI-mediated DSBs
Text: Cells were transfected with the ISceI-expressing plasmid and then treated various concentrations of DB4 for 48 hr. Cells were harvested, stained with 7-AAD, and analyzed by flow cytometry for GFP-positive cells indicative of HR repair activity. […] Cells were transfected with the ISceI-expressing plasmid and treated with various concentrations of DB4. Cells were harvested, stained with 7-AAD, and stained, and analyzed by flow cytometry for GFP-positive cells indicative of NHEJ activity. Data are means±SD (N=3). *, p<0.05; **, p<0.01, compared with the 0 μM control of ISceI-transected cells. FIG. 7C depicts representative results of confocal imaging of olaparib-induced nuclear Rad51 foci in SKOV3 cells treated DB4. […] Cells were also scored for nuclei containing equal or more than 10 distinct Rad51 foci to determine the percentage of cells positive for Rad51 foci. […] Protein was assessed by western blot analysis for the levels of γH2AX, p-H1, cyclin A2, p-CDK1/2, and HSC70. […] The band density of γH2AX indicative of DSBs was quantified by densitometry. […]
SKOV3-DR-GFP cells were established as described previously (Lin Z P et al., 2014, Molecular Cancer Res, 12:381-393). […] Cells were then trypsinized, stained with 7-AAD, and analyzed for the percentage of GFP-positive and […] cells by flow cytometry using an LSR II flow cytometer (BD Biosciences) and FlowJo software (Tree Star; Ashland, OR). […]

[1] = tested on: MDA-MB231 breast cancer cells; test: Clonogenic assay, MDA-MB231; format: cell-based; details: DB4 at 3 μM, 14 days
Method: Cells were plated for 24 hr, pre-treated with DB4 for 1 hr, and then treated with various concentrations of olaparib for 14 days. Colonies were stained and determined for clonogenic survival.
To further substantiate the effectiveness of DB4 and mitigate the issue of off-target effects with a higher concentration range of drugs used in the MTS cytotoxicity assay, clonogenic assays were carried out to determine the long-term survival of cells in response to treatments.
The assay was conducted as described previously (Lin Z P et al., 2014, Molecular Cancer Res, 12:381-393). Cells were plated at various densities in 6-well plates in triplicate. After 24 hr of incubation, cells were treated continuously with various concentrations of olaparib, DB4, or both drugs in combination. After 12-14 days, colonies were fixed/stained with crystal violet solution and counted to determine the percentage of survival using a GelDoc imaging system with QuantityOne software (Bio-Rad, Hercules, CA).

## C=CCn1c(SCc2cccc(Cl)c2)nnc1C1CCN(Cc2nc3ccccc3s2)CC1 [DB4, 2-[(4-{4-allyl-5-[(3-chlorobenzyl)thio]-4H-1,2,4-triazol-3-yl}-1-piperidinyl)methyl]-1,3-benzothiazole]
cNHEJ activity
  cNHEJ activity: appeared to enhance the cNHEJ activity induced by I-SceI-mediated DSBs but the increase was not statistically significant
[1]
  clonogenic survival in the presence of olaparib: effectively reduced the clonogenic survival
